What is called pIC50 is the IC50 on a negative log10 scale, so that one unit is a factor of ten.

This passage reports IC50 results from patent US11591311B2, “3-oxo-6-heteroaryl-2-phenyl-2,3-dihydropyridazine-4-carboxamides” (priority 2017, dated 2023).

pIC50: −log10 of the molar value.

The target of assay [1] is T1, AHR (Homo sapiens, UniProt P35869).
T1 construct: U87 glioblastoma cells (ATCC) endogenously expressing AHR; host or cells: U87 glioblastoma cells, stably transfected with DRE-firefly luciferase and renilla reporter constructs
T1 sequence (P35869 11-848): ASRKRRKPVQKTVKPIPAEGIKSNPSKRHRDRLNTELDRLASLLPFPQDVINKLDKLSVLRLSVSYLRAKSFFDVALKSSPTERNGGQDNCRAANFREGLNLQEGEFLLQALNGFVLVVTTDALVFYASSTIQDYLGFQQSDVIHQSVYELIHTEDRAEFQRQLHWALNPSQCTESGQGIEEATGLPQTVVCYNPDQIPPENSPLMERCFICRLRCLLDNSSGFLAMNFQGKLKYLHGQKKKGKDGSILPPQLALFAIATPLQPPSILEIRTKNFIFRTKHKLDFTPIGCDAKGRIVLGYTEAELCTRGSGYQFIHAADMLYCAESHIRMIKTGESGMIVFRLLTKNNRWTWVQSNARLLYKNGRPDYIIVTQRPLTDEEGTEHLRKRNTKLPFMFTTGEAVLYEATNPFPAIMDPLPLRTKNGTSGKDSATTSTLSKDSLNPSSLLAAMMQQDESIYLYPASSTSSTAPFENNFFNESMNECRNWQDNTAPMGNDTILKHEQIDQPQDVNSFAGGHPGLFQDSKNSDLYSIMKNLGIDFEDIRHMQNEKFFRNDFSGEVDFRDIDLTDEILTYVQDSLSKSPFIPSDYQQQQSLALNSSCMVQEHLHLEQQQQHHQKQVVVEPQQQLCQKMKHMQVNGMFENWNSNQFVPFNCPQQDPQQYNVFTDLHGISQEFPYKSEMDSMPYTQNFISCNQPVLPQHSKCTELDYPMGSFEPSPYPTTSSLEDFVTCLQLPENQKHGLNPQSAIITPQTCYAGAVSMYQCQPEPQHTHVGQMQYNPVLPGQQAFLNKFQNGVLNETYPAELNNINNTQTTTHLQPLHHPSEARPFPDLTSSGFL
The experiment in a line: In vitro assay 1: AHR-luc transactivation assay, antagonism in human cell line (U87 glioblastoma cells prestimulated with kynurenic acid). It is filed as cell-based. On the procedure: Transactivation Assay in Human Cell Line (In Vitro Assays 1 and 2)
Transactivation assays were carried out in U87 glioblastoma cells (ATCC) endogenously expressing AHR. In addition the cells were stably transfected with an AHR inducible firefly luciferase reporter gene construct that carried AHR-binding sites (DRE) in its promoter and a renilla reporter gene construct with constitutively active promoter. Kynurenic acid is an endogenous AHR activating ligand and was used to prestimulate test cells prior to testing the antagonistic properties of compounds.
In Vitro Assay 1: Antagonism in Human Cell Line
Cells in medium (tryptophan free RPMI, 1% FCS, 2 mM Glutamine) supplemented with 150 μM kynurenic acid were grown for 20 hours in absence (negative control) or presence of increasing concentrations of test compounds (typical dilutions: 72 pmol/L, 0.25 nmol/L, 0.89 nmol/L; 3.1 nmol/L, 11 nmol/L, 38 nmol/L, 130 nmol/L, 470 nmol/L, 1.6 μmol/L, 5.7 μmol/L and 20 μmol/L in duplicates). As positive inhibition control cells supplemented with 150 μM kynurenic acid were incubated in presence of 5 μM Staurosporin. Normalization was done by positive and negative controls.
Firefly luciferase and Renilla activity was determined by the DualGlo Luciferase Assay System (Promega, #2920). Renilla activity was used to assess toxic effects of compounds.

In assay [2] the target is T1, AHR. The experiment in a line: In vitro assay 3: AHR-regulated CYP1A1 expression in human cell line (U937, qPCR). It is filed as cell-based. Particulars: human monocytic U937 cells, CYP1A1 expression induced with 200 μM KA, 6 hours, quantitative PCR; read-out: Assay 3: Hum CYP1A1 Antagonism IC50. As for the experimental part:
In Vitro Assay 3: AHR-Regulated CYP1A1 Expression in Human Cell Line
To assess the AHR inhibitory activity of the substances described in this application, the ability thereof to antagonise ligand-induced AHR gene regulation in a dose-dependent manner was quantified. For this purpose, quantitative PCR analysis was used to determine expression of the AHR-regulated gene CYP1A1 in a human monocytic U937 cell line upon stimulation with 200 μM KA in the presence and absence of AHR inhibitor. […] CYP1A1 expression was induced with 200 μM KA (positive control) in the presence or absence of the substances for 6 hours. Human U937 cells were typically incubated with eight different concentrations of the substances (1 nM, 3 nM, 10 nM, 30 nM, 100 nM, 300 nM, 1 μM and 3 μM) and analyzed in duplicate on the same microtitre plate. […] Unstimulated cells were used as the negative control. Taqman probes for human CYP1A1 (Hs01054797_g1) and human HPRT (Hs02800695_m1) were used to analyze fold expression of CYP1A1 of HPRT. Quantitation was performed on a Taqman SDS7900HT.

Consider `O=C(N[C@H]1CCC[C@@H]1O)c1cc(-c2ccc(C(F)(F)F)nc2)nn(-c2cccc(F)c2)c1=O` [Example 6, 2-(3-Fluorophenyl)-N-[(1S,2S)-2-hydroxycyclopentyl]-3-oxo-6-[6-(trifluoromethyl)pyridin-3-yl]-2,3-dihydropyridazine-4-carboxamide], for which the pIC50 was 7.87 in assay [1] and 8.08 in assay [2].
The corresponding values for `C[C@@H](CO)NC(=O)c1cc(-c2ccc(C(F)(F)F)nc2)nn(-c2cc(F)cc(F)c2)c1=O` [Example 1, 2-(3,5-Difluorophenyl)-N-[(25)-1-hydroxypropan-2-yl]-3-oxo-6-[6-(trifluoromethyl)pyridin-3-yl]-2,3-dihydropyridazine-4-carboxamide] are 8.15 and 8.28.
